Non-standard residues stand in square brackets, D forms with d. Residues, ends and D or L forms follow the SMILES beside them.

As usually defined, the half-life is the time needed for the level to fall by half in the phase considered. Lower therefore signals rapid decline.

The first series is described as follows: In vitro plasma stability (half-life) in freshly collected mouse blood, LC-MS/MS. Type of series: in vitro ADME. The conditions noted are these: up to 8 hours at 37°C in Swiss (CD-I) mouse blood, analyte quantified in the plasma fraction. The method, then:
In vitro plasma stability (i.e. half-life or t1/2) of the peptides of the invention was also assessed. Briefly, each peptide was incubated up to 8 hours at 37°C in freshly collected Swiss (CD-I) mouse blood and the analyte was quantified in the plasma fraction at several time-points using a liquid chromatography-tandem mass spectrometry (LC-MS/MS) analytical method. […]
Compound `CSCC[C@@H]1NC(=O)[C@H](N)CSSC[C@@H](C(=O)O)NC(=O)CN(C)C(=O)[C@H](CCCNC(=N)N)NC(=O)[C@H](CC(C)C)NC(=O)[C@H](CCCNC(=N)N)NC(=O)[C@@H]2CCCCN2C1=O` [SEQ ID NO: 3, (D)-Cys-Met-Pip-Arg-Leu-Arg-Sar-Cys] gave a half-life of 5.9 h.

`CSCC[C@@H]1NC(=O)[C@H](N)CSSC(C)(C)[C@@H](C(=O)O)NC(=O)CN(C)C(=O)[C@H](CCCNC(=N)N)NC(=O)[C@H](CC(C)C)NC(=O)[C@H](CCCNC(=N)N)NC(=O)[C@@H]2CSCN2C1=O` [SEQ ID NO: 2, (D)-Cys-Met-Thz-Arg-Leu-Arg-Sar-Pen] had a half-life of 4.9 h.

In the case of `CSCC[C@@H]1NC(=O)[C@H](N)CSSC(C)(C)[C@@H](C(=O)O)NC(=O)CN(C)C(=O)[C@H](CCCNC(=N)N)NC(=O)[C@H](CC(C)C)NC(=O)[C@H](CCCNC(=N)N)NC(=O)[C@@H]2CCCCN2C1=O` [SEQ ID NO: 5, (D)-Cys-Met-Pip-Arg-Leu-Arg-Sar-Pen], the half-life is 9.2 h.

For `CSCC[C@@H]1NC(=O)[C@H](N)CSSC(C)(C)[C@@H](C(=O)O)NC(=O)CNC(=O)[C@H](CCCNC(=N)N)NC(=O)[C@H](CC(C)C)NC(=O)[C@H](CCCNC(=N)N)NC(=O)[C@@H]2CSCN2C1=O` [SEQ ID NO: 1, (D)-Cys-Met-Thz-Arg-Leu-Arg-Gly-Pen], the half-life was 4 h.

With `CSCC[C@@H]1NC(=O)[C@H](N)CSSC(C)(C)[C@@H](C(=O)O)NC(=O)CNC(=O)[C@H](CCCNC(=N)N)NC(=O)[C@H](CC(C)C)NC(=O)[C@H](CCCNC(=N)N)NC(=O)[C@@H]2CCCCN2C1=O` [SEQ ID NO: 4, (D)-Cys-Met-Pip-Arg-Leu-Arg-Gly-Pen], the half-life is 3.9 h.

The next series in a line: In situ brain perfusion, cerebral transfer coefficient (Kin). As to conditions: in situ brain perfusion 2-5 min, perfusate flow rate 2 ml/min. It counts as in vivo, mouse. The method, then: The in situ brain perfusion technique (in adult male OF1 mouse) is used to illustrate passage in the brain across the BBB.
Radioactive peptides with high specific radioactivity (RAS, up to 100 Ci/mmol) are prepared by a strategy of acylation of the N-term amine function by tritiated propionic (or propanoic) anhydride or tritiated N-propionyl-succinimide (NPS).
The techniques briefly summarized below were developed previously to study the distribution in the brain of active substances and, in particular, the role of the BBB and, more particularly, of LDLR in the penetration of these molecules in the brain. In situ brain perfusion techniques are among the most technically demanding and the most difficult to perform in the mouse. […]
This strategy of in situ brain perfusion normally carried out in the rat was adapted for mouse (Dagenais et al., 2000, J Cereb Blood Flow Metab., 20(2), 381-6) in order to broaden its application for evaluating the parameters of transport kinetics at the BBB and the blood-retinal barrier, and this also in transgenic and KO mutant mice for the receptors, enzymes or transporters of active substances. […] The duration of the fixed flow-rate perfusion is monitored. […]
As for `CC(C)C[C@H](NC(=O)[C@H](Cc1ccccc1)NC(=O)CNC(=O)[C@@H](C)NC(=O)[C@@H](N)Cc1ccc(O)cc1)C(=O)N[C@@H](CCCNC(=N)N)C(=O)O` [Dalargine] (H-Y[dA]GFLR-OH), the “Kin (transfer coefficient)” value is “≈ 0.9 x 10^-4 ml/s/g”.
